In patent publication US6737383B1, “Herbicidal oxadiazolidines” (priority 1999, dated 2004):

How the values were obtained:
soybean = experiment: Test B pre/postemergence soybean; type: in vivo, Glycine max
In short: (§1)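 Test chemicals in a non-phytotoxic solvent mixture with surfactant were sprayed preemergence onto planted seeds and postemergence onto plants 2 to 18 cm tall (1- to 4-leaf stage). After twelve to sixteen days in a greenhouse, injury was visually rated against untreated controls from 0 (no effect) to 10 (complete control).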

wheat = experiment: Test B pre/postemergence wheat; type: in vivo, Triticum aestivum
In short: as §1

purple nutsedge = experiment: Test B pre/postemergence purple nutsedge; type: in vivo, Cyperus rotundus
In short: as §1

duck salad = experiment: Test B flood test duck salad; type: in vivo, Heteranthera limosa
In short: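 Plants were grown to the 2-leaf stage before treatment with test chemical, then held in a greenhouse for twelve to sixteen days. Injury was visually rated against untreated controls on a 0–10 scale, where 0 is no effect and 10 is complete control.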

winter wheat [1] = experiment: Test E winter wheat; type: in vivo, Triticum aestivum; settings: Postemergence
In short: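 Postemergence: spray at 1–4 leaf stage, soil 60:40 sandy loam:potting mix; solvent + surfactant formulation; greenhouse 21–28 d; visual injury vs untreated controls.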

blackgrass = experiment: Test E blackgrass; type: in vivo, Alopecurus myosuroides; settings: Preemergence
green foxtail = experiment: Test E green foxtail; type: in vivo, Setaria viridis; settings: Preemergence
Italian ryegrass = experiment: Test E Italian ryegrass; type: in vivo, Lolium multiflorum; settings: Preemergence
winter wheat [2] = experiment: Test E winter wheat; type: in vivo, Triticum aestivum; settings: Preemergence
wild oat = experiment: Test E wild oat; type: in vivo, Avena fatua; settings: Preemergence
winter barley = experiment: Test E winter barley; type: in vivo, Hordeum vulgare; settings: Preemergence
[3] = Preemergence, Rate 31 g/ha, visual rating, scale 0 to 10 (0 no effect, 10 complete control)
[4] = Preemergence, Rate 62 g/ha, scale of 0 to 10 where 0 is no effect and 10 is complete control
[5] = Preemergence, Rate 250 g/ha, scale of 0 to 10 where 0 is no effect and 10 is complete control
[6] = Rate 62 g/ha, Postemergence, scale 0 to 10, 0 no effect, 10 complete control
[7] = Rate 125 g/ha, Postemergence, scale of 0 to 10 where 0 is no effect and 10 is complete control
[8] = Rate 125 g/ha, Preemergence, scale of 0 to 10 where 0 is no effect and 10 is complete control
[9] = Rate 250 g/ha, Postemergence, scale of 0 to 10 where 0 is no effect and 10 is complete control
[10] = Rate 62 g/ha, headed Pre-emergence (flood test species), scale 0 to 10 (0 no effect, 10 complete control)
[11] = Rate 125 g/ha, Pre-emergence, flood test species, scale 0 to 10 where 0 is no effect and 10 is complete control
[12] = Rate 250 g/ha, Pre-emergence, flood-test species, scale 0 to 10, 0 is no effect, 10 is complete control
[13] = Rate 125 g/ha, 0 to 100 scale, 0 is no effect, 100 is complete control
[14] = Rate 1000 g/ha, 0 to 100 scale where 0 is no effect and 100 is complete control
[15] = Rate 500 g/ha, 0 to 100 scale, 0 is no effect, 100 is complete control
[16] = Rate 125 g/ha, 0 to 100 scale (0 no effect, 100 complete control)
[17] = Rate 500 g/ha, 0 to 100 scale (0 no effect, 100 complete control)
[18] = Rate 1000 g/ha, 0 to 100 scale, 0 no effect, 100 complete control
[19] = Preemergence, Rate 500 g/ha, scale of 0 to 10 where 0 is no effect and 10 is complete control
[20] = Rate 500 g/ha, Pre-emergence, flood test species, scale 0 to 10 (0 no effect, 10 complete control)
[21] = Rate 250 g/ha, 0 to 100 scale, 0 is no effect, 100 is complete control
[22] = Rate 250 g/ha, 0 to 100 scale, 0 no effect, 100 complete control
[23] = Postemergence, Rate 125 g/ha, scale 0 to 10, 0 is no effect, 10 is complete control
[24] = Rate 62 g/ha, Postemergence, scale of 0 to 10 where 0 is no effect and 10 is complete control
[25] = Rate 500 g/ha, Postemergence, scale 0 to 10, 0 no effect, 10 complete control

CC(Cl)=CCn1c(=O)on(C(=O)N(c2ccc(F)cc2)C(C)C)c1=O [Compound 285]
40: Plant response rating, Wheat (winter) (winter wheat [1]; [15]) | Plant response rating, Wild oat (wild oat; [18])
65: Plant response rating, Green foxtail (green foxtail; [18])
25: Plant response rating, Wheat (winter) (winter wheat [2]; [17])
70: Plant response rating, Blackgrass (blackgrass; [18]) | Plant response rating, I. Ryegrass (Italian ryegrass; [17]) | Plant response rating, I. Ryegrass (Italian ryegrass; [18])
10: Plant response rating, Wild oat (wild oat; [16]) | Plant response rating, Barley (winter) (winter barley; [17])
30: Plant response rating, Wheat (winter) (winter wheat [1]; [14]) | Plant response rating, Wheat (winter) (winter wheat [2]; [16])
3: Plant response rating, Soybean (soybean; [9])
50: Plant response rating, Wheat (winter) (winter wheat [2]; [18])
60: Plant response rating, Green foxtail (green foxtail; [17])
0: Soybean plant response rating (soybean; [3]) | Soybean plant response rating (soybean; [4]) | Soybean plant response rating (soybean; [5]) | Soybean plant response rating (soybean; [8]) | Wheat plant response rating (wheat; [3]) | Wheat plant response rating (wheat; [4]) | Wheat plant response rating (wheat; [5]) | Wheat plant response rating (wheat; [6]) | Wheat plant response rating (wheat; [7]) | Wheat plant response rating (wheat; [8]) | Plant response rating, Wheat (wheat; [9]) | Nutsedge plant response rating (purple nutsedge; [3]) | Nutsedge plant response rating (purple nutsedge; [4]) | Nutsedge plant response rating (purple nutsedge; [5]) | Nutsedge plant response rating (purple nutsedge; Rate 31 g/ha, Postemergence, scale 0 to 10) | Nutsedge plant response rating (purple nutsedge; [6]) | Nutsedge plant response rating (purple nutsedge; [7]) | Nutsedge plant response rating (purple nutsedge; [8]) | Plant response rating, Nutsedge (purple nutsedge; [9]) | Ducksalad plant response rating (duck salad; Rate 31 g/ha, Pre-emergence section (flood test species), scale 0 to 10) | Ducksalad plant response rating (duck salad; [10]) | Ducksalad plant response rating (duck salad; [11]) | Ducksalad plant response rating (duck salad; [12]) | Plant response rating, Barley (winter) (winter barley; [16])
20: Plant response rating, Wheat (winter) (winter wheat [1]; [13]) | Wheat (winter) plant response rating (winter wheat [1]; Rate 250 g/ha, 0 to 100 scale where 0 is no effect and 100 is complete control) | Plant response rating, Blackgrass (blackgrass; [16]) | Plant response rating, Green foxtail (green foxtail; [16]) | Plant response rating, I. Ryegrass (Italian ryegrass; [16]) | Plant response rating, Wild oat (wild oat; [17]) | Plant response rating, Barley (winter) (winter barley; [18])
55: Plant response rating, Blackgrass (blackgrass; [17])
2: Soybean plant response rating (soybean; [6]) | Soybean plant response rating (soybean; [7])

CC(C)N(C(=O)n1oc(=O)n(C2CC2)c1=O)c1ccc(F)cc1F [Compound 299]
50: Plant response rating, Wheat (winter) (winter wheat [2]; [16]) | Plant response rating, Barley (winter) (winter barley; [22])
65: Plant response rating, Wheat (winter) (winter wheat [2]; Rate 250 g/ha, 0 to 100 scale) | Plant response rating, Wild oat (wild oat; [16])
70: Plant response rating, Wheat (winter) (winter wheat [1]; [21]) | Plant response rating, I. Ryegrass (Italian ryegrass; [16]) | Plant response rating, Wild oat (wild oat; Rate 250 g/ha, 0 to 100 scale)
8: Wheat plant response rating (wheat; [5]) | Wheat plant response rating (wheat; [19])
40: Plant response rating, Barley (winter) (winter barley; [16])
3: Wheat plant response rating (wheat; [4]) | Wheat plant response rating (wheat; [7])
60: Plant response rating, Wheat (winter) (winter wheat [1]; [13]) | Plant response rating, Blackgrass (blackgrass; [16])
6: Soybean plant response rating (soybean; [5]) | Soybean plant response rating (soybean; [7]) | Plant response rating, Soybean (soybean; [9]) | Plant response rating, Wheat (wheat; [9])
100: Plant response rating, Blackgrass (blackgrass; Rate 250 g/ha, 0 to 100 scale) | Plant response rating, Green foxtail (green foxtail; [16]) | Plant response rating, Green foxtail (green foxtail; Rate 250 g/ha, 0 to 100 scale)
85: Plant response rating, I. Ryegrass (Italian ryegrass; Rate 250 g/ha, 0 to 100 scale)
0: Soybean plant response rating (soybean; [4]) | Soybean plant response rating (0 to 10 scale) (soybean; Preemergence, Rate 125 g/ha) | Wheat plant response rating (wheat; [6]) | Nutsedge plant response rating (purple nutsedge; [4]) | Nutsedge plant response rating (0 to 10 scale) (purple nutsedge; Preemergence, Rate 125 g/ha) | Nutsedge plant response rating (purple nutsedge; [6]) | Nutsedge plant response rating (purple nutsedge; [7]) | Plant response rating, Nutsedge (purple nutsedge; [9]) | Ducksalad plant response rating (duck salad; [10]) | Ducksalad plant response rating (duck salad; [11]) | Ducksalad plant response rating (duck salad; [12]) | Ducksalad plant response rating (duck salad; [20])
7: Soybean plant response rating (soybean; [19]) | Wheat plant response rating (0 to 10 scale) (wheat; Preemergence, Rate 125 g/ha)

CC(C)N(C(=O)n1oc(=O)n(C2CCCCCC2)c1=O)c1ccc(F)cc1 [Compound 340]
65: Plant response rating, I. Ryegrass (Italian ryegrass; [18])
100: Plant response rating, Green foxtail (green foxtail; [18])
3: Plant response rating, Soybean (soybean; [25])
5: Ducksalad plant response rating (duck salad; [20])
30: Plant response rating, Wheat (winter) (winter wheat [1]; [21]) | Plant response rating, Green foxtail (green foxtail; Rate 250 g/ha, 0 to 100 scale)
40: Plant response rating, Wheat (winter) (winter wheat [2]; Rate 250 g/ha, 0 to 100 scale) | Plant response rating, Barley (winter) (winter barley; [17])
85: Plant response rating, Blackgrass (blackgrass; [18])
1: Soybean plant response rating (soybean; [24])
50: Plant response rating, Blackgrass (blackgrass; Rate 250 g/ha, 0 to 100 scale) | Plant response rating, Wheat (winter) (winter wheat [2]; [17]) | Plant response rating, Wild oat (wild oat; Rate 250 g/ha, 0 to 100 scale) | Plant response rating, Wild oat (wild oat; [17]) | Plant response rating, Barley (winter) (winter barley; [22]) | Plant response rating, Barley (winter) (winter barley; [18])
60: Plant response rating, Wheat (winter) (winter wheat [1]; [14]) | Plant response rating, Blackgrass (blackgrass; [17]) | Plant response rating, Green foxtail (green foxtail; [17]) | Plant response rating, I. Ryegrass (Italian ryegrass; [17]) | Plant response rating, Wheat (winter) (winter wheat [2]; [18]) | Plant response rating, Wild oat (wild oat; [18])
55: Plant response rating, Wheat (winter) (winter wheat [1]; [15]) | Plant response rating, I. Ryegrass (Italian ryegrass; Rate 250 g/ha, 0 to 100 scale)
2: Plant response rating, Soybean (soybean; [23])
0: Soybean plant response rating (soybean; [4]) | Soybean plant response rating (0 to 10 scale) (soybean; Preemergence, Rate 125 g/ha) | Soybean plant response rating (soybean; [5]) | Soybean plant response rating (soybean; [19]) | Plant response rating, Wheat (wheat; [23]) | Wheat plant response rating (wheat; [4]) | Wheat plant response rating (0 to 10 scale) (wheat; Preemergence, Rate 125 g/ha) | Wheat plant response rating (wheat; [5]) | Wheat plant response rating (wheat; [19]) | Wheat plant response rating (wheat; [24]) | Plant response rating, Wheat (wheat; [25]) | Plant response rating, Nutsedge (purple nutsedge; [23]) | Nutsedge plant response rating (purple nutsedge; [4]) | Nutsedge plant response rating (0 to 10 scale) (purple nutsedge; Preemergence, Rate 125 g/ha) | Nutsedge plant response rating (purple nutsedge; [5]) | Nutsedge plant response rating (purple nutsedge; [19]) | Nutsedge plant response rating (purple nutsedge; [24]) | Plant response rating, Nutsedge (purple nutsedge; [25]) | Ducksalad plant response rating (duck salad; [10]) | Ducksalad plant response rating (duck salad; [11]) | Ducksalad plant response rating (duck salad; [12])
